Test results taken from US12509431B2, “1,4-dihydroquinazolinone compounds and uses thereof” (Edgewise Therapeutics, Inc., priority 2022, dated 2025).
Read-outs that look alike come from different tables or passages of the source.

Columns and labels:
[1] = system: isoflurane-anesthetized SD rats; experiment: In vivo echocardiography of systolic cardiac performance (FS, SWT, HR, LV volumes) after a single oral dose; conditions: Rattus norvegicus, single dose 10 mg/kg PO, ~2 hrs post-dosing, vs. vehicle
Method: Experiments were performed to evaluate the in vivo ability of the compounds of the disclosure to modulate systolic cardiac performance. Non-invasively echocardiography was used to assess cardiac indicators in isoflurane-anesthetized SD rats. A set of conscious rats were treated with either vehicle control (0 mg/kg PO; n=78) or a single dose of an test compound (10 mg/kg PO, n=2 to 6/compound) via oral gavage. Cardiac function/geometry were recorded at two separate time-points/days: once prior to dosing (i.e., at baseline, day −2) and at ˜2 hrs post-dosing (day 0).
In these experiments, heart rate (HR), echocardiography-derived indices of left-ventricular systolic performance, as well as dimensions/volumes were measured using a high-frequency transducer and parastemnal long-axis transthoracic views (Vevo3100, VisualSonic). LV fractional shortening (FS), an index of systolic function, was defined as the end-diastole normalized change in internal dimensions divided by the […] (LVid) of the left ventricle between end-systole (LVids) and end-diastole (LVidd) (i.e., FS=100·[LVidd−LVids]/LVidd). LV volumes were derived using the Teichholz formula (LVV=7·LVid^3/[2.4+LVid]). In addition, a systolic wall-thickening index (SWT) was also evaluated. SWT is defined as the relative ratio (end-diastole normalized) of left-ventricular (anterior and posterior) wall-thickness change during systole; i.e., SWT=I{[(anterior LV wall thickness in systole−anterior LV wall thickness in diastole)][…][(posterior LV wall thickness in systole−posterior LV wall thickness in diastole)]}/{2*diastolic thickness}. In all cases, blood samples were taken (via either tail-vein micro-sampling or cardiac-puncture) at the time of each echocardiographic examination in order to establish pharmacokinetic (PK)/pharmacodynamics (PD) relationships.

[2] = molecular target: T1, Porcine Ventricle myofibrils (left ventricle of Yucatan minipigs) (Sus scrofa, UniProt P79293); experiment: Myofibril ATPase assay (PK/LDH NADH-coupled), ventricle myofibrils; assay type: biochemical
T1 construct: Myofibrils from porcine cardiac muscle was isolated from the left ventricle of Yucatan minipigs; tissue Exemplar Genetics; host or cells: left ventricle of Yucatan minipigs
T1 sequence (P79293 whole entry): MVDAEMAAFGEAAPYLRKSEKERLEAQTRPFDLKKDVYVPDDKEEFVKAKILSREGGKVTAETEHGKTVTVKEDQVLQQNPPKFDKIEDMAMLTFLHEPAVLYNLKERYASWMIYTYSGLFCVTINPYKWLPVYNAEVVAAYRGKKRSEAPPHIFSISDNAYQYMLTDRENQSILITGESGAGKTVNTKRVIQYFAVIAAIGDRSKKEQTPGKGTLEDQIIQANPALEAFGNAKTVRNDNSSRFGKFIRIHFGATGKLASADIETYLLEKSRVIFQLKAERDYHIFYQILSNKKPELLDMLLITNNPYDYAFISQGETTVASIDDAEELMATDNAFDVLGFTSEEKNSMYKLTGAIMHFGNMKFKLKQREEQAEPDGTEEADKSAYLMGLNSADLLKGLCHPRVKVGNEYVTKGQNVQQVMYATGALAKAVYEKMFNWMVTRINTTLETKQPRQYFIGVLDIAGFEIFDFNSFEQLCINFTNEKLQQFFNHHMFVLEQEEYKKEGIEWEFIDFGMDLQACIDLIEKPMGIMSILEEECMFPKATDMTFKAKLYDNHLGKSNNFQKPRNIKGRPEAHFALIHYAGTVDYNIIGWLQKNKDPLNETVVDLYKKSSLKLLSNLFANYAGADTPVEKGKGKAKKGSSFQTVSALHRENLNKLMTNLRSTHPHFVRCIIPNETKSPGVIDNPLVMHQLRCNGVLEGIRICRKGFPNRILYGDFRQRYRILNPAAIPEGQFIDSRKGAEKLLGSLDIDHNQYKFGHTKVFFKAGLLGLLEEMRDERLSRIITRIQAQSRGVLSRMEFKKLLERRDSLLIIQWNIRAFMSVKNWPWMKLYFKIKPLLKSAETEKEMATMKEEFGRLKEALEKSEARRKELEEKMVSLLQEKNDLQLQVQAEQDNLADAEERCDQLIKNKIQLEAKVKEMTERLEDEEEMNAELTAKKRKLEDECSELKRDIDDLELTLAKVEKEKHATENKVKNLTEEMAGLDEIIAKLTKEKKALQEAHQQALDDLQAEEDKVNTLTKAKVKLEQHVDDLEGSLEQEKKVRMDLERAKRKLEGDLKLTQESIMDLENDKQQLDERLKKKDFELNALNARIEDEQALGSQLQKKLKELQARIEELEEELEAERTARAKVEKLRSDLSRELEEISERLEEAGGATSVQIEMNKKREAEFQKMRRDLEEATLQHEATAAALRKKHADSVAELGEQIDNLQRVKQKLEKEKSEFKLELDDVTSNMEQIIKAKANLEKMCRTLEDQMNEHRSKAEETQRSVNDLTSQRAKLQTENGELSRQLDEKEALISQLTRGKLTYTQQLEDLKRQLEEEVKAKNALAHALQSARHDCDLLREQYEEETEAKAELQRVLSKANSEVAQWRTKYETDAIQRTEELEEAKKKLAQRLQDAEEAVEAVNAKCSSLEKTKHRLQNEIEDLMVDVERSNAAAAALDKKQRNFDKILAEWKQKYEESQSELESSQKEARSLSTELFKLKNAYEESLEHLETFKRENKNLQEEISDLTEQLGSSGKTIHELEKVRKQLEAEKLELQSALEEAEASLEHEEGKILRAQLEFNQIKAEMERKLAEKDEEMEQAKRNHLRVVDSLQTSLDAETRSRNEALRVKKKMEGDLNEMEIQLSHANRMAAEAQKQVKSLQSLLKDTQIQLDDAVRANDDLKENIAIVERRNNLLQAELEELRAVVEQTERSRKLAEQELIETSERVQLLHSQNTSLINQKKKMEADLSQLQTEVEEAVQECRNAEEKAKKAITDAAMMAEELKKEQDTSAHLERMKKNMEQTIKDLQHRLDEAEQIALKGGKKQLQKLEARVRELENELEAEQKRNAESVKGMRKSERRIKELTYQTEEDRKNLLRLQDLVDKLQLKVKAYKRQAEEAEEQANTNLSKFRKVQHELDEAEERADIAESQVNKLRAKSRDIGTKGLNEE
How it was run: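 Yucatan minipig left-ventricle myofibrils; ATPase measured by PK/LDH-coupled NADH loss at 340 nm, read every 1.5-2 min for 75 min. Slopes normalized to vehicle (100%) and fit to 4-parameter logistic model; EC25 and, for inhibitors, EC50 calculated.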

[3] = EDV (LV volume, Teichholz formula), read-out: EDV % vs. VEH
[4] = LV fractional shortening, read-out: FS % vs. VEH
[5] = heart rate, read-out: HR % vs. VEH
[6] = systolic wall-thickening index, read-out: SWT % vs. VEH

SMILES	change in vivo at 10 mg/kg [1, 3] [%]	change in vivo at 10 mg/kg [1, 4] [%]	change in vivo at 10 mg/kg [1, 5] [%]	change in vivo at 10 mg/kg [1, 6] [%]	Porcine Ventricle IC25 ([2]; Table 8) [nM]	Porcine Ventricle IC25 ([2]; Table 7) [nM]
N#Cc1cnc2c(c1)OCC2NC(=O)CN1Cc2c(ccc(F)c2F)NC1=O (single isomer, unassigned) [Compound B65]	22	-61	22	-53	166.7	–
CC(NC(=O)CN1Cc2cc(F)ccc2NC1=O)c1ccc(C#N)cc1F (single isomer, unassigned) [Compound B206]	29	-67	7	-57	47.69	–
C[C@@H](NC(=O)CN1Cc2c(ccc(F)c2F)NC1=O)c1ncc(C#N)cc1F [Compound B141, (R)—N-(1-(5-cyano-3-fluoropyridin-2-yl)ethyl)-2-(5,6-difluoro-2-oxo-1,4-dihydroquinazolin-3(2H)-yl)acetamide]	-3	-15	13	-19	3094	–
O=C(CN1Cc2cc(F)ccc2NC1=O)N[C@@H]1COc2cc(F)cc(F)c21 [Compound B145]	11	-42	7	-39	51.2	–
O=C(CN1Cc2c(ccc(F)c2F)NC1=O)N[C@@H]1COc2cc(F)cc(F)c21 [Compound B147]	10	-35	10	-37	77.66	–
C[C@H](NC(=O)CN1Cc2c(ccc(F)c2F)NC1=O)c1ccc(C#N)cc1F [Compound B189]	19	-13	-5	-29	77.43	–
C[C@H](NC(=O)CN1Cc2c(ccc(F)c2F)NC1=O)c1ncc(F)cc1F [Compound B191]	9	-59	17	-59	191.3	–
C[C@H](NC(=O)CN1Cc2cc(F)ccc2NC1=O)c1ncc(C#N)cc1F [Compound B199]	11	-54	22	-55	569.3	–
C[C@H](NC(=O)CN1Cc2cc(F)ccc2NC1=O)c1ccc(F)cc1F [Compound B247, N-[(1S)-1-(2,4-Difluorophenyl)ethyl]-2-(6-fluoro-2-oxo-1,4-dihydroquinazolin-3-yl)acetamide]	7	-31	7	-35	296.8	–
O=C(CN1C(=O)Nc2cccnc2C12CC2)N[C@@H]1COc2cc(F)cc(F)c21 [Compound N33]	2	-10	6	-5	–	283.2
